Earlier results on 2 compounds are cited in patent US9730952B2, “Methods for treating and preventing mucositis” (Indena S.p.A., priority 2006, dated 2017).

Structures are written as SMILES.

The test system of series [1] is numerous strains of Candida and other pathogenic fungi.

With `COc1ccc2c(c[n+](C)c3c4cc5c(cc4ccc23)OCO5)c1OC` [chelerythrine], in series [1], the “concentration inhibiting growth of numerous strains of Candida and other pathogenic fungi” value was “nanomolar concentrations”. In addition, in the series with Gram+ and Gram− bacteria, the “concentration inhibiting growth of Gram+ and Gram− bacteria” value is listed as “nanomolar concentrations”.
Turning to `CN1Cc2c(ccc3c2OCO3)[C@@H]2[C@H]1c1cc3c(cc1C[C@@H]2O)OCO3` [chelidonine], the “concentration inhibiting growth of numerous strains of Candida and other pathogenic fungi” value in series [1] is given as “nanomolar concentrations”. For the same compound, the “concentration inhibiting growth of Gram+ and Gram− bacteria” value in the series on Gram+ and Gram− bacteria is “nanomolar concentrations”.
